Experimental data from patent US7166593B2, “Glucocorticoid receptor modulators” (Pfizer, Inc., priority 2000, dated 2007).
pIC50: −log10 of the molar value.

Key:
[1] = tested on: IL-1 (Interleukin-1) induced MMP-1 (Matrix Metalloproteinase-1) production in SW1353 human chondrosarcoma cells; assay: glucocorticoid inhibition of IL-1 induced MMP-1 production in human chondrosarcoma cells; assay type: cell-based; conditions: 20 ng/ml IL-1 beta, 72 hours after IL-1 addition, MMP-1 ELISA, read-out: IC50, inhibitor of MMP1 expression
Experimental: (§1) This assay, the glucocorticoid inhibition of IL-1 (Interleukin-1) induced MMP-1 (Matrix Metalloproteinase-1) and IL-8 (Interleukin-8) production in human chondrosarcoma cells, is conducted as follows: SW1353 human chondrosarcoma cells (obtained from ATCC) from passage 12 through passage 19 are used in a 96 well format assay. Cells are plated at confluence into 96 well plates in DMEM (Dulbecco's Modified Eagle Medium) with 10% fetal bovine serum and incubated at 37° C., 5% CO2. After 24 hours, serum containing media is removed and replaced with 200 ul/well DMEM containing 1 mg/L insulin, 2 g/L lactalbumin hydrosylate, and 0.5 mg/L ascorbic acid and returned to incubation at 37° C., 5% CO2. […] IL-8 production is assessed using the Quantikine human IL-8 ELISA kit from R&D Systems (D8050) on samples diluted 60. fold in RD5P Calibrator Diluent, following the manufacturer's protocol. The percent of the average IL-1 control is determined for the average of each of the triplicate samples following subtraction of the average signal from untreated cells. IC50's are determined from log linear plots of the percent of control versus the concentration of inhibitor. […] MMP-1 production is assessed via the Bio-Trak MMP-1 ELISA kit from Amersham (RPN2610) on 100 ul of neat sample following the manufacturer's protocol. […]

[2] = tested on: IL-1 (Interleukin-1) induced IL-8 (Interleukin-8) production in SW1353 human chondrosarcoma cells; assay: glucocorticoid inhibition of IL-1 induced IL-8 production in human chondrosarcoma cells; assay type: cell-based; conditions: 20 ng/ml IL-1 beta, 24 hours after addition of IL-1, IL-8 ELISA, read-out: IC50, inhibitor of IL-8 expression
Experimental: as §1

C[C@@H]1C[C@H]2[C@@H]3CCC4=CC(=O)C=C[C@]4(C)[C@@]3(F)[C@@H](O)C[C@]2(C)[C@@]1(O)C(=O)CO [Dexamethasone, (11β,16α)-9-fluoro-11,17,21-trihydroxy-16-methylpregna-1,4-diene-3,20-dione]
pIC50 [1]: 8.30 | pIC50 [2]: 8.30
